For 19 compounds, AC50 results are on record in ChEMBL document CHEMBL5291721, “A preclinical secondary pharmacology resource illuminates target-adverse drug reaction associations of marketed drugs” (Nat Commun, 2023).

Some targets named below: Mu-type opioid receptor (Homo sapiens, UniProt P35372); Melanocortin receptor 3 (Homo sapiens, UniProt P41968); D(3) dopamine receptor (Homo sapiens, UniProt P35462); Vasopressin V2 receptor (Homo sapiens, UniProt P30518); Adenosine receptor A2a (Homo sapiens, UniProt P29274).
In test [1] the target is Growth hormone secretagogue receptor type 1 (Homo sapiens, UniProt Q92847).
The target in another test is T1, Adenosine receptor A3 (Homo sapiens, UniProt P0DMS8).
T1 sequence (P0DMS8 whole entry): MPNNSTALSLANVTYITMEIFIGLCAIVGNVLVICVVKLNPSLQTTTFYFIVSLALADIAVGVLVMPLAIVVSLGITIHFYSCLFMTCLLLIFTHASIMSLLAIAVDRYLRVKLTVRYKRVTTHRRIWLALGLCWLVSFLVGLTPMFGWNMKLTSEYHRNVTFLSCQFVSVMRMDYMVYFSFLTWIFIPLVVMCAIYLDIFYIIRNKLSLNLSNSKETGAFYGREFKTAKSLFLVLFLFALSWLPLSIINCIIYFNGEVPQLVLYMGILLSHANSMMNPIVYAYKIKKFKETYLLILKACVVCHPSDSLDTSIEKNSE

For test [2], the target named is Voltage-dependent L-type calcium channel subunit alpha-1C (Rattus norvegicus, UniProt P22002). Format: functional.
Test [3] deals with T2, Alpha-2A adrenergic receptor (Homo sapiens, UniProt P08913).
T2 sequence (P08913 whole entry): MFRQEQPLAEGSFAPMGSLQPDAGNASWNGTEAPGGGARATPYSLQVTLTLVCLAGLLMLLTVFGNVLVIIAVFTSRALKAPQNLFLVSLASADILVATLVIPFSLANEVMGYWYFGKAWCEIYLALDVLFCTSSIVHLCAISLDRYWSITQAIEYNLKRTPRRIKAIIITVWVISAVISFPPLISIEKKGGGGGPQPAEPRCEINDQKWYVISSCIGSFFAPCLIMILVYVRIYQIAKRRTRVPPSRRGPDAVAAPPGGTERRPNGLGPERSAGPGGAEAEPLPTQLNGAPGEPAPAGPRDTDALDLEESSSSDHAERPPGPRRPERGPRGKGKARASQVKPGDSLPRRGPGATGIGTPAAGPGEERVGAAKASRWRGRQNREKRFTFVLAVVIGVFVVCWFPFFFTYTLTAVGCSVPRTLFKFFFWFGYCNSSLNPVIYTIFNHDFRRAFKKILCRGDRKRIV
The test is classed as functional, cell-based.

Test [4] has as its target Sodium-dependent noradrenaline transporter (Homo sapiens, UniProt P23975).
The target in test [5] is T3, Muscarinic acetylcholine receptor M2 (Homo sapiens, UniProt P08172).
T3 sequence (P08172 whole entry): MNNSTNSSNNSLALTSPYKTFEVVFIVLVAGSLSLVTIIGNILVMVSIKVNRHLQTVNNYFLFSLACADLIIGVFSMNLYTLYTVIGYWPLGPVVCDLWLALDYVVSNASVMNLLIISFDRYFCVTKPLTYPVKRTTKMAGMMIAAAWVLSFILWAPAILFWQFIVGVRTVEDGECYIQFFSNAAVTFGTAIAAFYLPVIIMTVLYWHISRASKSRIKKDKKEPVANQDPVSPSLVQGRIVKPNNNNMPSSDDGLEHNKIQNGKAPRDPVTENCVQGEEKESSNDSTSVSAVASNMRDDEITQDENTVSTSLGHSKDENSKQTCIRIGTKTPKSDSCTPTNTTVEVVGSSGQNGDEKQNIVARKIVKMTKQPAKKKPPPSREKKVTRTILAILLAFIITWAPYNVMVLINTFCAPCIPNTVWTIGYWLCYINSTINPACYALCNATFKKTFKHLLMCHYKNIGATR
Format: functional, cell-based.

Test [6] concerns the target T4, 5-hydroxytryptamine receptor 1A (Homo sapiens, UniProt P08908).
T4 sequence (P08908 whole entry): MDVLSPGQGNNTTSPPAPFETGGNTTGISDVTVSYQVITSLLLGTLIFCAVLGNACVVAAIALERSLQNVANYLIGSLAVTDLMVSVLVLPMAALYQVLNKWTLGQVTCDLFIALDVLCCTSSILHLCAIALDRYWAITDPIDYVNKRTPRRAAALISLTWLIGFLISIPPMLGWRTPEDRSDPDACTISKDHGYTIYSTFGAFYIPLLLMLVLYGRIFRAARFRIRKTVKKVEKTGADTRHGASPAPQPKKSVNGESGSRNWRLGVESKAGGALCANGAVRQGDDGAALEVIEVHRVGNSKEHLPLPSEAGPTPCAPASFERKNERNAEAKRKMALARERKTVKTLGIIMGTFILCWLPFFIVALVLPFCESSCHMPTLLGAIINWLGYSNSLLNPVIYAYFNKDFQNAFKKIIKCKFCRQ
The test is classed as functional, cell-based.

For a further test, the target named is Histamine H2 receptor (Homo sapiens, UniProt P25021). Format: functional, cell-based.
Test [7] concerns the target T5, Alpha-1A adrenergic receptor (Homo sapiens, UniProt P35348).
T5 sequence (P35348 whole entry): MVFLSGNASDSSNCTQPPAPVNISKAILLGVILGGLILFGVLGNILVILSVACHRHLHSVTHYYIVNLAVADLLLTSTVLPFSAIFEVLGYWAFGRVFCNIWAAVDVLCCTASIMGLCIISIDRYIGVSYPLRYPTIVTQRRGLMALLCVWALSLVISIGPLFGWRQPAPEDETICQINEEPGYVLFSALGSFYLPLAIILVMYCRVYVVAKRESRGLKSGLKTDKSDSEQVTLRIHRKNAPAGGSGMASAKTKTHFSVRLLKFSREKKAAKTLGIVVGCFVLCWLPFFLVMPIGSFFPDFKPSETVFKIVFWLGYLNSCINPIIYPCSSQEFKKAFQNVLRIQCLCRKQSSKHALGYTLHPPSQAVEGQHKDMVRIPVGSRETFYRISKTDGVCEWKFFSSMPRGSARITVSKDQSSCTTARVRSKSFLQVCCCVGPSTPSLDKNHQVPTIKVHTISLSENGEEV
Format: functional, cell-based.

In test [8] the target is Gamma-aminobutyric acid receptor subunit alpha-1 (Rattus norvegicus, UniProt P62813).
Test [9] has as its target Vascular endothelial growth factor receptor 2 (Homo sapiens, UniProt P35968). Format: functional.

A word on the AC50: it is the midpoint of the concentration-response curve, whichever way the signal moves.
Note: assay procedure not described here.

Chain of Gamma-aminobutyric acid receptor subunit alpha-1 (P62813 whole entry): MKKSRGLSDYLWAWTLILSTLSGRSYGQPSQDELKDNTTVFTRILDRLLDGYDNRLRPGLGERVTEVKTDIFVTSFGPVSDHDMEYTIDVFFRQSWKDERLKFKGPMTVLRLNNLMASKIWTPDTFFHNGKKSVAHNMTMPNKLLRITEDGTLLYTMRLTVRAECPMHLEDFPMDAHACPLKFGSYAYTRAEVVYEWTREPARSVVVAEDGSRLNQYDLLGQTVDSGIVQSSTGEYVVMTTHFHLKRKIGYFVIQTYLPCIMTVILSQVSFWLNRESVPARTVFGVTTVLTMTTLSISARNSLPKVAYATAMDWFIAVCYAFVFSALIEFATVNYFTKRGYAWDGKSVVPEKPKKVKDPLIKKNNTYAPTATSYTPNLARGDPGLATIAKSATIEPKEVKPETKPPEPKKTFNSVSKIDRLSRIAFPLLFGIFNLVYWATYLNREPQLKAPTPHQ
Chain of Vascular endothelial growth factor receptor 2 (P35968 whole entry): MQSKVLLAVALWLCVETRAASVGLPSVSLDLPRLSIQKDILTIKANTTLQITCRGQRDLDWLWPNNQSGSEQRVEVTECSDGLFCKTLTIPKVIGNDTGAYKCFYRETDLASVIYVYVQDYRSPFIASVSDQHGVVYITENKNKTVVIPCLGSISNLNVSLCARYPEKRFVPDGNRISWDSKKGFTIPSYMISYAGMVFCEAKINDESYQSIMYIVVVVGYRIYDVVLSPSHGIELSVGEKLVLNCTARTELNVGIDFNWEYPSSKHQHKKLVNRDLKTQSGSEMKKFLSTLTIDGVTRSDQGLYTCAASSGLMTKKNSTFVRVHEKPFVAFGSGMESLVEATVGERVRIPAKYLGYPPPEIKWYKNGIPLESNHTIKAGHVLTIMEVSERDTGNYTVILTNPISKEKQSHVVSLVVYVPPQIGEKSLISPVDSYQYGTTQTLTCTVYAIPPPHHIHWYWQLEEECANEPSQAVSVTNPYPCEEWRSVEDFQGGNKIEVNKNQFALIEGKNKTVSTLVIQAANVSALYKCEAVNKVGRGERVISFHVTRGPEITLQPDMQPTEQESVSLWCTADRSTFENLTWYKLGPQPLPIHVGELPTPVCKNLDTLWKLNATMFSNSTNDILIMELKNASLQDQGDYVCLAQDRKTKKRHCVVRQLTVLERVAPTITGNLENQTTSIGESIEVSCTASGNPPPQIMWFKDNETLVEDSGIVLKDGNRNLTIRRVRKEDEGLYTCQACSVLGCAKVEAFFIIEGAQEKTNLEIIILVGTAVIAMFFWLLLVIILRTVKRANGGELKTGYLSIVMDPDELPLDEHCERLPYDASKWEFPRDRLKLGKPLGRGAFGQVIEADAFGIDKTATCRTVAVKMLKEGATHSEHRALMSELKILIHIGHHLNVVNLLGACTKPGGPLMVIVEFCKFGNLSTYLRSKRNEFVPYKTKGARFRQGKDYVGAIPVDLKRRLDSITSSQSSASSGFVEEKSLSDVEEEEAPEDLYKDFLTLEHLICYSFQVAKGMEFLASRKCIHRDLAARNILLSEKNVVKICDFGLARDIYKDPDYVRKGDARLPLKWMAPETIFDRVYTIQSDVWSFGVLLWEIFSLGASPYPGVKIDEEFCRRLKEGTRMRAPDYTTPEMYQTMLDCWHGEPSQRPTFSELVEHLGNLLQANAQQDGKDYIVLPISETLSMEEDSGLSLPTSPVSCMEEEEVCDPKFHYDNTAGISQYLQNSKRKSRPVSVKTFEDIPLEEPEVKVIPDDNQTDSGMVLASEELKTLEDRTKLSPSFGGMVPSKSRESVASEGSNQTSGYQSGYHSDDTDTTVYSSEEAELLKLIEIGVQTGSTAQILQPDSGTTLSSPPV
Chain of D(3) dopamine receptor (P35462 whole entry): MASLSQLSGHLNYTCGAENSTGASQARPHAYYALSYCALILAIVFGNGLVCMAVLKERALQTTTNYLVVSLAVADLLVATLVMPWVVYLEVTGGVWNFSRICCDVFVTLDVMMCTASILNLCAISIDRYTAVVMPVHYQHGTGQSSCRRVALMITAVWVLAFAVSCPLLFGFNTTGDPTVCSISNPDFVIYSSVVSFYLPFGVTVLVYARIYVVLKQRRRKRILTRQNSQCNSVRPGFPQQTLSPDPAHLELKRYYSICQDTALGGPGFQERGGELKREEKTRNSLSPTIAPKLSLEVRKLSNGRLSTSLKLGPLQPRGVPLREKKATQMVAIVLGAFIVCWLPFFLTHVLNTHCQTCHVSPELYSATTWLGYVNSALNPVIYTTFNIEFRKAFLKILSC
Chain of Growth hormone secretagogue receptor type 1 (Q92847 whole entry): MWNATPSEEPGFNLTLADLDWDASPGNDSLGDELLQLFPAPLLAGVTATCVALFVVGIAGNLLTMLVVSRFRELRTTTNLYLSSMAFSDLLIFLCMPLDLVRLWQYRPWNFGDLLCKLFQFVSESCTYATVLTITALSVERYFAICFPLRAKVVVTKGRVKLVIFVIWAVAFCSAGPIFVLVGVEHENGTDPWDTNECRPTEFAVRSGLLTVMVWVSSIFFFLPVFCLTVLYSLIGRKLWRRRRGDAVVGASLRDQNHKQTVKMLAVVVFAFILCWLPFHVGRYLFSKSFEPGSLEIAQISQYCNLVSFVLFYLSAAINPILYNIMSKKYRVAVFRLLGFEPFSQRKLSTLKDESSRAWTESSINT
Chain of Vasopressin V2 receptor (P30518 whole entry): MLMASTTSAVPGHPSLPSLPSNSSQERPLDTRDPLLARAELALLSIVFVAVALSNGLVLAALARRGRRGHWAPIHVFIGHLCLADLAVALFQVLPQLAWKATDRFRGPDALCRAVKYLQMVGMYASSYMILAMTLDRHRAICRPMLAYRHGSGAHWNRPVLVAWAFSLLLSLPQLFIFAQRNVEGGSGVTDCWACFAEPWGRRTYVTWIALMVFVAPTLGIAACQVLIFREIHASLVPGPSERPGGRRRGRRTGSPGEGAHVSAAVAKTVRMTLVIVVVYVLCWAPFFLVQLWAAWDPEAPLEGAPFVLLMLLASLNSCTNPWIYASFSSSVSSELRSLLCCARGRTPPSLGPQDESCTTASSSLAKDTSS
Chain of Histamine H2 receptor (P25021 whole entry): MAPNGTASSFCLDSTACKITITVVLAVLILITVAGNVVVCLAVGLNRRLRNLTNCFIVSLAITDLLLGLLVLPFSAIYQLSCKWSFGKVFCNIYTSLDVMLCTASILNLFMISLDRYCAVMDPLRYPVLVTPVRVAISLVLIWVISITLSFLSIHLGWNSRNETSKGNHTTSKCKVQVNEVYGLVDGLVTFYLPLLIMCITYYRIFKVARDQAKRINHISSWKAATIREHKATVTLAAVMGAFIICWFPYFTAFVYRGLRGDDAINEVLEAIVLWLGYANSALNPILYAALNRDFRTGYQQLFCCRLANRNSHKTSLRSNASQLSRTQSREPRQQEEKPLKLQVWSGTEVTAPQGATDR
Chain of Melanocortin receptor 3 (P41968 whole entry): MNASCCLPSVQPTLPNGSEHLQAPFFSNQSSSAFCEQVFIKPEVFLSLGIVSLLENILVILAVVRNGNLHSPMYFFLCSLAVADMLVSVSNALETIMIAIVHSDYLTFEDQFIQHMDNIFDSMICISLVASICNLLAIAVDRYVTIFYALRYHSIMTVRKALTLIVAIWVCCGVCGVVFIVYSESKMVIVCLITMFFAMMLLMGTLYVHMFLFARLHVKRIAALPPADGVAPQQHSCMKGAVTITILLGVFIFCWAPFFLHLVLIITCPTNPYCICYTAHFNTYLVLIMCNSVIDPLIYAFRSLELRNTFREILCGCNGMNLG
Chain of Sodium-dependent noradrenaline transporter (P23975 whole entry): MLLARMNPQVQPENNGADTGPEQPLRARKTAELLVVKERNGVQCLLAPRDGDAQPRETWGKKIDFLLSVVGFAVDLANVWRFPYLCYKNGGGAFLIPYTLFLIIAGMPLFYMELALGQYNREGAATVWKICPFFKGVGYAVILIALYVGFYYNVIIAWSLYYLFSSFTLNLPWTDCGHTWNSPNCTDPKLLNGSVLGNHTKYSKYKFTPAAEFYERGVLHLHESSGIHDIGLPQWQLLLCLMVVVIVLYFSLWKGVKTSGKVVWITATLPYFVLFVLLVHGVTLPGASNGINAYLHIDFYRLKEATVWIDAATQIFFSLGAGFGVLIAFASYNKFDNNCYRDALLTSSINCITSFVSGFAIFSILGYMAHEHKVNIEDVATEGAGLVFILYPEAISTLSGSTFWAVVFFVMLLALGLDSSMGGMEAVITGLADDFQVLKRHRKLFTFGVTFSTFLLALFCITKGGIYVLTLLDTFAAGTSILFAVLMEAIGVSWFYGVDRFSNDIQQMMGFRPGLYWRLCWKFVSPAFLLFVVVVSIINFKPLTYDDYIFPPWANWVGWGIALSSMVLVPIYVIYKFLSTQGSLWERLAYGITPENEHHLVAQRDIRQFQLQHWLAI
Chain of Adenosine receptor A2a (P29274 whole entry): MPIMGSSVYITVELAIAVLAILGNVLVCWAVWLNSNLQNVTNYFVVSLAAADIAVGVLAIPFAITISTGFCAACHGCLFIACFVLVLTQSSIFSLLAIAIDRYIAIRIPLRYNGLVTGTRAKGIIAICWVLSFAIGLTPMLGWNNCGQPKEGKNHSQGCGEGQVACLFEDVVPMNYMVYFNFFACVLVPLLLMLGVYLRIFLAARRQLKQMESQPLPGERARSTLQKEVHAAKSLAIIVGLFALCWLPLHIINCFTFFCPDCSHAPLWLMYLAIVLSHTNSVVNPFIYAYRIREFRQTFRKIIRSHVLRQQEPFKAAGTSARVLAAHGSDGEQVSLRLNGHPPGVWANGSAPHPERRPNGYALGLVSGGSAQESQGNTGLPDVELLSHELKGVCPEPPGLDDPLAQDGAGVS

Turning to `CCCN(CCC)C(=O)Cc1c(-c2ccc(Cl)cc2)nc2ccc(Cl)cn12` [ALPIDEM], the AC50 on Mu-type opioid receptor was greater than 10 µM; in test [1] it was greater than 30 µM; at Melanocortin receptor 3, greater than 30 µM; at Adenosine receptor A3, 11.5 µM; on D(3) dopamine receptor it was greater than 30 µM; in test [2] it was greater than 30 µM. For the same compound, the AC50 (in test [3]; at Vasopressin V2 receptor; on Adenosine receptor A2a; in [4]; in test [5]; in [6]) was greater than 30 µM each time. The figures for the AC50 (at Histamine H2 receptor; in test [7]; in test [8]) were greater than 30 µM, greater than 10 µM and 0.02 µM, respectively.
As for `CNC(=O)Oc1cccc2ccccc12` [CARBARIL], the AC50 in [9], in test [7] and in test [8] was greater than 30 µM each time.
Take `CC[C@H](C)C[C@H](C)CCCCCCCCC(=O)N[C@H]1C[C@@H](O)[C@@H](NCCN)NC(=O)[C@@H]2[C@@H](O)CCN2C(=O)[C@H]([C@H](O)CCN)NC(=O)[C@H]([C@H](O)[C@@H](O)c2ccc(O)cc2)NC(=O)[C@@H]2C[C@@H](O)CN2C(=O)[C@H]([C@@H](C)O)NC1=O` [CASPOFUNGIN]: the AC50 in test [9] was greater than 10 µM; in [7], 13 µM; in test [8] it was greater than 30 µM.
For `C/C=C/C/C=C/CCC(=O)[C@H]1O[C@H]1C(N)=O` [CERULENIN] the same measures were greater than 30 µM, greater than 30 µM and greater than 30 µM.
For `CN(C)[C@@H]1C(O)=C(C(N)=O)C(=O)[C@@]2(O)C(O)=C3C(=O)c4c(O)ccc(Cl)c4[C@@](C)(O)[C@H]3C[C@@H]12` [CHLORTETRACYCLINE] the same measures were greater than 30 µM, greater than 30 µM and greater than 30 µM.
With `OC[C@H]1O[C@@H](c2ccc(Cl)c(Cc3ccc(O[C@H]4CCOC4)cc3)c2)[C@H](O)[C@@H](O)[C@@H]1O` [EMPAGLIFLOZIN], the AC50 in test [9], in test [7] and in test [8] was greater than 30 µM each time.
Take `CC(C)(O)CNc1nc(Nc2ccnc(C(F)(F)F)c2)nc(-c2cccc(C(F)(F)F)n2)n1` [ENASIDENIB]: the concentration at half-maximal activity (AC50) in test [9] is 20.5 µM; in test [7] it was 20.3 µM; in test [8], greater than 30 µM.
As for `CC[C@H](c1ccc(O)cc1)[C@@H](CC)c1ccc(O)cc1` [HEXESTROL], the AC50 in [9] was greater than 30 µM; in [7], greater than 3 µM; in test [8] it was greater than 30 µM.
Take `O=C1/C(=C2\Nc3ccc(S(=O)(=O)O)cc3C2=O)Nc2ccc(S(=O)(=O)O)cc21` [INDIGOTINDISULFONATE]: the AC50 in [9] is 3.05 µM; in test [7], greater than 30 µM; in test [8] it was greater than 30 µM.
`CC(C)C[C@H](NC(=O)CNC(=O)c1cc(Cl)ccc1Cl)B(O)O` [IXAZOMIB]: the AC50 in [9], in test [7] and in test [8] was greater than 30 µM throughout.
For `C=CCN1CC[C@]23CCCC[C@H]2[C@H]1Cc1ccc(O)cc13` [LEVALLORPHAN], the AC50 in test [9], in test [7] and in test [8] was greater than 30 µM each time.
As for `O=C(O)c1cc(/N=N/c2ccc(O)c(C(=O)O)c2)ccc1O` [OLSALAZINE], the AC50 was 12.3 µM in [9], greater than 30 µM in [7] and greater than 30 µM in test [8].
For `CCn1cc(C(=O)O)c(=O)c2cc3c(cc21)OCO3` [OXOLINIC ACID], the AC50 in test [9], in [7] and in [8] was greater than 30 µM throughout.
Turning to `FC(F)(F)c1ccc(CNc2ccc(Cc3c[nH]c4ncc(Cl)cc34)cn2)cn1` [PEXIDARTINIB], the results for the AC50 in test [9], in [7] and in [8] were 0.131 µM, 1.8 µM and greater than 30 µM, respectively.
Turning to `Nc1ccc(C(=O)Oc2ccccc2)c(O)c1` [PHENYL AMINOSALICYLATE], the AC50 in [9] was 23.2 µM; in test [7], 23 µM; in [8], greater than 30 µM.
`CN1CCC(=C2c3ccccc3Sc3ccccc32)CC1` [PIMETHIXENE]: the AC50 in test [9] was greater than 30 µM; in test [7], 0.121 µM; in [8], greater than 30 µM.
As to `N[C@@H](CO)C(=O)O` [SERINE], the AC50 in test [9], in test [7] and in [8] was greater than 30 µM in each case.
With `CC[C@H]1OC(=O)[C@H](C)C(=O)[C@H](C)[C@@H](O[C@@H]2O[C@H](C)C[C@H](N(C)C)[C@H]2O)[C@](C)(OC)C[C@@H](C)C(=O)[C@H](C)[C@H]2N(CCCCn3cnc(-c4cccnc4)c3)C(=O)O[C@]12C` [TELITHROMYCIN], the AC50 in test [9], in test [7] and in [8] was greater than 30 µM each time.
Turning to `CC(=O)Oc1cc(C(F)(F)F)ccc1C(=O)O` [TRIFLUSAL], the AC50 in [9], in [7] and in [8] was greater than 30 µM throughout.
